Source: patent US9073855B2, “BCL-2 selective apoptosis-inducing agents for the treatment of cancer and immune diseases” (AbbVie Inc., priority 2008, dated 2015)

What was measured:
GST-Bcl-XL = GST-Bcl-XL (Homo sapiens, UniProt Q07817); test: TR-FRET binding assay, GST-Bcl-XL with F-Bak peptide probe; details: TR-FRET Binding Affinity
Description: (§1) Tb-anti-GST antibody was purchased from Invitrogen (Catalog No. PV4216).
(§2) Representative compounds were serially diluted in dimethyl sulfoxide (DMSO) starting at 50 μM (2× starting concentration; 10% DMSO) and 10 μL were transferred into a 384-well plate.
(§3) The samples were then mixed on a shaker for 1 minute and incubated for an additional 3 hours at room temperature. For each assay, the probe/antibody and protein/probe/antibody were included on each assay plate as negative and positive controls, respectively. Fluorescence was measured on the ENVISION plate reader (Perkin Elmer) using a 340/35 nm excitation filter and 520/525 (F-Bak peptide) and 495/510 nm (Tb-labeled […] antibody) emission filters.
(§4) The inhibition constant (Ki) is the dissociation constant of an enzyme-inhibitor complex or a protein/small molecule complex, wherein the small molecule is inhibiting binding of one protein to another protein or peptide. […] Inhibition constants were determined using Wang's equation (Wang Z-X., An Exact Mathematical Expression For Describing Competitive Binding Of Two Different Ligands To A Protein Molecule. FEBS Lett. 1995, 360:111-4).

GST-Bcl-2 = GST-Bcl-2 (Homo sapiens, UniProt P10415); test: TR-FRET binding assay, GST-Bcl-2 with F-Bak peptide probe; details: for Ki: TR-FRET Binding Affinity
Chain of GST-Bcl-2 (P10415 whole entry): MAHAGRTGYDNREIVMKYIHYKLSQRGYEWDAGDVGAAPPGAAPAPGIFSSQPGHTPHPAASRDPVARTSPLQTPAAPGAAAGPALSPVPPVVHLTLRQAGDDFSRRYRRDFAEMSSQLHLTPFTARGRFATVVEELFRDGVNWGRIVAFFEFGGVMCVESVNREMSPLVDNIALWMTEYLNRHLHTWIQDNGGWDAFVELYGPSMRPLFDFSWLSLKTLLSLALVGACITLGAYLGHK
Description: as §1, §2, §3, §4

[1] = TR-FRET, Bcl-XL Ki divided by Bcl-2 Ki
[2] = GST-Bcl-XL, F-Bak peptide probe
[3] = ratio of TR-FRET Ki values, Bcl-XL over Bcl-2

Chain of GST-Bcl-XL (Q07817 whole entry): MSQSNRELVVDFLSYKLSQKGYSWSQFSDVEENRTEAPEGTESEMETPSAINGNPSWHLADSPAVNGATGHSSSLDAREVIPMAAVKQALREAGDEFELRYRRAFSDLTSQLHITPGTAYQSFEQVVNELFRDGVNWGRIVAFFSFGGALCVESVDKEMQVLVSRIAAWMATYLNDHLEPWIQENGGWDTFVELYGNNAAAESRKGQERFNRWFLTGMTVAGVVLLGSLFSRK

SMILES | Ki (GST-Bcl-XL) | Ki (GST-Bcl-2) | Binding selectivity ratio (Bcl-XL Ki/Bcl-2 Ki) (GST-Bcl-2; [1]) | Ki (GST-Bcl-XL; [2]) | Ki (GST-Bcl-2; GST-Bcl-2, F-Bak peptide probe) | Binding selectivity ratio (Bcl-XL Ki/Bcl-2 Ki) (GST-Bcl-2; [3])
CC1(C)CCC(CN2CCN(c3ccc(C(=O)NS(=O)(=O)c4cnc(OC[C@@H]5CN(C6CC6)CCO5)c(Cl)c4)c(Oc4cccc5[nH]cnc45)c3)CC2)=C(c2ccc(Cl)cc2)C1 [Example 503, 2-(1H-benzimidazol-4-yloxy)-N-[(5-chloro-6-{[(2S)-4-cyclopropylmorpholin-2-yl]methoxy}pyridin-3-yl)sulfonyl]-4-(4-{[2-(4-chlorophenyl)-4,4-dimethylcyclohex-1-en-1-yl]methyl}piperazin-1-yl)benzamide] | 147 nM | 0.062 nM | 2356.5 | – | – | –
O=C(NS(=O)(=O)c1ccc(NCCCN2CCOCC2)cc1)c1ccc(N2CCN(Cc3ccccc3-c3ccc(Cl)cc3)CC2)cc1Oc1ccccc1 [Example 78, 4-{4-[(4′-chloro-1,1′-biphenyl-2-yl)methyl]piperazin-1-yl}-N-({4-[(3-morpholin-4-ylpropyl)amino]phenyl}sulfonyl)-2-phenoxybenzamide] | – | – | – | > 660 nM | 113 nM | –
CC1(C)CCC(CN2CCN(c3cc(Oc4cccc5[nH]ncc45)c(C(=O)NS(=O)(=O)c4ccc(NCC5(F)CCOCC5)c([N+](=O)[O-])c4)cc3Cl)CC2)=C(c2ccc(Cl)cc2)C1 [Example 511, 5-chloro-4-(4-{[2-(4-chlorophenyl)-4,4-dimethylcyclohex-1-en-1-yl]methyl}piperazin-1-yl)-N-[(4-{[(4-fluorotetrahydro-2H-pyran-4-yl)methyl]amino}-3-nitrophenyl)sulfonyl]-2-(1H-indazol-4-yloxy)benzamide] | 21.6 nM | < 0.01 nM | >2159.2 | – | – | –
CN(C)CCCOc1ccc(-c2ccc(Cl)cc2)c(CN2CCN(c3ccc(C(=O)NS(=O)(=O)c4ccc(NCC5CCOCC5)c([N+](=O)[O-])c4)c(Oc4ccccc4)c3)CC2)c1 [Example 116, 4-[4-({4′-chloro-4-[3-(dimethylamino)propoxy]-1,1′-biphenyl-2-yl}methyl)piperazin-1-yl]-N-({3-nitro-4-[(tetrahydro-2H-pyran-4-ylmethyl)amino]phenyl}sulfonyl)-2-phenoxybenzamide] | – | – | – | 8.3 nM | 0.036 nM | –
CN(C)CCCN(C)c1ccc(S(=O)(=O)NC(=O)c2ccc(N3CCN(Cc4ccccc4-c4ccc(Cl)cc4)CC3)cc2Oc2ccccc2)cc1[N+](=O)[O-] [Example 87, 4-{4-[(4′-chloro-1,1′-biphenyl-2-yl)methyl]piperazin-1-yl}-N-({4-[[3-(dimethylamino)propyl](methyl)amino]-3-nitrophenyl}sulfonyl)-2-phenoxybenzamide] | – | – | – | 407 nM | 0.762 nM | –
CC1(C)CCC(CN2CCN(c3ccc(C(=O)NS(=O)(=O)c4cnc(NC5CCN(C6CC6)CC5)c(Cl)c4)c(Oc4cccc5[nH]cnc45)c3)CC2)=C(c2ccc(Cl)cc2)C1 [Example 449, 2-(1H-benzimidazol-4-yloxy)-N-({5-chloro-6-[(1-cyclopropylpiperidin-4-yl)amino]pyridin-3-yl}sulfonyl)-4-(4-{[2-(4-chlorophenyl)-4,4-dimethylcyclohex-1-en-1-yl]methyl}piperazin-1-yl)benzamide] | 17.8 nM | 0.24 nM | 74.4 | – | – | –
COc1ccc(Nc2ccc(S(=O)(=O)NC(=O)c3ccc(N4CCN(CC5=C(c6ccc(Cl)cc6)CC(C)(C)CC5)CC4)cc3Oc3ccc4[nH]ccc4c3)cc2[N+](=O)[O-])cc1O [Example 394, 4-(4-{[2-(4-chlorophenyl)-4,4-dimethylcyclohex-1-en-1-yl]methyl}piperazin-1-yl)-N-({4-[(3-hydroxy-4-methoxyphenyl)amino]-3-nitrophenyl}sulfonyl)-2-(1H-indol-5-yloxy)benzamide] | – | – | – | > 660000 nM | 2.51 nM | >263262.9
O=C(NS(=O)(=O)c1ccc(N2C(=O)C3CCC3C2=O)cc1)c1ccc(N2CCN(Cc3ccccc3-c3ccc(Cl)cc3)CC2)cc1Oc1ccccc1 (stereo not drawn) [Example 28, 4-{4-[(4′-chloro-1,1′-biphenyl-2-yl)methyl]piperazin-1-yl}-N-{[4-(2,4-dioxo-3-azabicyclo[3.2.0]hept-3-yl)phenyl]sulfonyl}-2-phenoxybenzamide] | – | – | – | > 660 nM | 33.7 nM | –
CN1CCN(Nc2ccc(S(=O)(=O)NC(=O)c3ccc(N4CCN(CC5=C(c6ccc(Cl)cc6)CC(C)(C)CC5)CC4)cc3Oc3cccc4[nH]cnc34)cc2[N+](=O)[O-])CC1 [Example 453, 2-(1H-benzimidazol-4-yloxy)-4-(4-{[2-(4-chlorophenyl)-4,4-dimethylcyclohex-1-en-1-yl]methyl}piperazin-1-yl)-N-({4-[(4-methylpiperazin-1-yl)amino]-3-nitrophenyl}sulfonyl)benzamide] | 3.63 nM | < 0.01 nM | 363.0 | – | – | –
O=C(NS(=O)(=O)c1ccc(NCC2CCOCC2)c([N+](=O)[O-])c1)c1ccc(N2CCN(Cc3ccccc3-c3ccc(Cl)cc3)CC2)cc1Oc1ccccc1 [Example 1, 4-{4-[(4′-chloro-1,1′-biphenyl-2-yl)methyl]piperazin-1-yl}-N-({3-nitro-4-[(tetrahydro-2H-pyran-4-ylmethyl)amino]phenyl}sulfonyl)-2-phenoxybenzamide] | – | – | – | 578 nM | 6.77 nM | –
CC1(C)CN(c2ccc(S(=O)(=O)NC(=O)c3ccc(N4CCN(Cc5ccccc5-c5ccc(Cl)cc5)CC4)cc3Oc3ccccc3)cc2)C1=O [Example 30, 4-{4-[(4′-chloro-1,1′-biphenyl-2-yl)methyl]piperazin-1-yl}-N-{[4-(3,3-dimethyl-2-oxoazetidin-1-yl)phenyl]sulfonyl}-2-phenoxybenzamide] | – | – | – | > 660 nM | 103 nM | –
Cc1ccc(S(=O)(=O)NC(=O)c2ccc(N3CCN(Cc4ccccc4-c4ccc(Cl)cc4)CC3)cc2Oc2ccccc2)cc1 [Example 61, 4-{4-[(4′-chloro-1,1′-biphenyl-2-yl)methyl]piperazin-1-yl}-N-[(4-methylphenyl)sulfonyl]-2-phenoxybenzamide] | – | – | – | > 660 nM | 52.2 nM | –
CN(C)CC(=O)N1CCO[C@H](COc2ncc(S(=O)(=O)NC(=O)c3ccc(N4CCN(CC5=C(c6ccc(Cl)cc6)CC(C)(C)CC5)CC4)cc3Oc3cccc4[nH]ncc34)cc2Cl)C1 [Example 425, N-[(5-chloro-6-{[(2S)-4-(N,N-dimethylglycyl)morpholin-2-yl]methoxy}pyridin-3-yl)sulfonyl]-4-(4-{[2-(4-chlorophenyl)-4,4-dimethylcyclohex-1-en-1-yl]methyl}piperazin-1-yl)-2-(1H-indazol-4-yloxy)benzamide] | – | – | – | 3.99 nM | 0.003 nM | 1282.2
CC1(C)CCC(CN2CCN(c3ccc(C(=O)NS(=O)(=O)c4ccc(OCC5CCC(C)(O)CC5)c([N+](=O)[O-])c4)c(Oc4cccc5[nH]ncc45)c3)CC2)=C(c2ccc(Cl)cc2)C1 (stereo not drawn) [Example 532, 4-(4-{[2-(4-chlorophenyl)-4,4-dimethylcyclohex-1-en-1-yl]methyl}piperazin-1-yl)-N-({4-[(cis-4-hydroxy-4-methylcyclohexyl)methoxy]-3-nitrophenyl}sulfonyl)-2-(1H-indazol-4-yloxy)benzamide] | 9.81 nM | < 0.01 nM | >981.2 | – | – | –
CC1(C)CCC(CN2CCN(c3cc(Oc4cccc5[nH]ncc45)c(C(=O)NS(=O)(=O)c4cnc(OCC5(F)CCOCC5)c(Cl)c4)cc3Cl)CC2)=C(c2ccc(Cl)cc2)C1 [Example 510, 5-chloro-N-({5-chloro-6-[(4-fluorotetrahydro-2H-pyran-4-yl)methoxy]pyridin-3-yl}sulfonyl)-4-(4-{[2-(4-chlorophenyl)-4,4-dimethylcyclohex-1-en-1-yl]methyl}piperazin-1-yl)-2-(1H-indazol-4-yloxy)benzamide] | 174 nM | 0.674 nM | 257.8 | – | – | –
CC1(C)CCC(CN2CCN(c3ccc(C(=O)NS(=O)(=O)c4cnc(OCC5CCOCC5)c(Cl)c4)c(Oc4cccc5[nH]ncc45)c3)CC2)=C(c2ccc(Cl)cc2)C1 [Example 427, 4-(4-{[2-(4-chlorophenyl)-4,4-dimethylcyclohex-1-en-1-yl]methyl}piperazin-1-yl)-N-{[5-chloro-6-(tetrahydro-2H-pyran-4-ylmethoxy)pyridin-3-yl]sulfonyl}-2-(1H-indazol-4-yloxy)benzamide] | – | – | – | 85.6 nM | 0.002 nM | 34408.6
CC1(C)CCC(CN2CCN(c3ccc(C(=O)NS(=O)(=O)c4ccc(NCCCN5CCOCC5)c([N+](=O)[O-])c4)c(Oc4ccc5[nH]ncc5c4)c3)CC2)=C(c2ccc(Cl)cc2)C1 [Example 20, 4-(4-{[2-(4-chlorophenyl)-4,4-dimethylcyclohex-1-en-1-yl]methyl}piperazin-1-yl)-2-(1H-indazol-5-yloxy)-N-({4-[(3-morpholin-4-ylpropyl)amino]-3-nitrophenyl}sulfonyl)benzamide] | – | – | – | 77.6 nM | 2.36 nM | –
O=C(NS(=O)(=O)c1ccc(NCC2CCOCC2)c(S(=O)(=O)C(F)(F)F)c1)c1ccc(N2CCN(Cc3ccccc3-c3ccc(Cl)cc3)CC2)cc1Oc1ccc2[nH]ccc2c1 [Example 62, 4-{4-[(4′-chloro-1,1′-biphenyl-2-yl)methyl]piperazin-1-yl}-2-(1H-indol-5-yloxy)-N-({4-[(tetrahydro-2H-pyran-4-ylmethyl)amino]-3-[(trifluoromethyl)sulfonyl]phenyl}sulfonyl)benzamide] | – | – | – | 571 nM | 3.52 nM | –
